Structures can show the parent of a compound that is named as a salt.
Key:
[1] = biological target: T1, human NPFFR1 (hNPFFR1) receptor (Homo sapiens, UniProt Q9GZQ6); assay: Human NPFFR1 evaluation using BRET biosensors (antagonist IC50); format: cell-based; details: hNPFFR1 transiently over-expressed in HEK-293 T cells; BRET signal; stimulation by EC80 RFRP-3
T1 construct: expressed in transfected cells; host or cells: HEK-293 T cells, transient co-transfection with polyethylenimine
Description: Compounds of the present invention were tested successively for their agonist and antagonist activities on human NPFFR1 (hNPFFR1) receptor transiently over-expressed in HEK-293 T cells. Compounds exert agonist activity if, by themselves in absence of neuropeptide RFRP-3 (also named NPVF) they activate hNPFFR1; and they exert antagonist activity if they decrease the action of RFRP-3 on the receptor.
The assay used to measure compound activity is based on BRET (Bioluminescence Resonance Energy Transfer) biosensors and is designed to monitor the plasma membrane translocation of protein that interacts with specific Ga subunit. The specific effector (luciferase tagged: BRET donor) recruited at the membrane will be in close proximity to a plasma membrane anchor (GFP tagged: BRET acceptor) to induce a BRET signal. Biosensors are described in the patent application WO 2016/041093 A1 (Biosensors for monitoring biomolecule localization and trafficking in cells).
HEK-293 T cells are maintained in Dulbecco's Modified Eagle's Medium supplemented with 10% Foetal Calf Serum, 1% Penicillin/Streptomycin at 37° C./5% CO2.
Cells are co-transfected using polyethylenimine (25 kDa linear) with four DNA plasmids encoding: hNPFFR1, GαoB, a Gi family specific intracellular effector fused to luciferase (BRET donor), a plasma membrane effector fused to GFP (BRET acceptor). After transfection, cells are cultured for 48 h at 37° C./5% CO2.
Receptor activity is detected by changes in BRET signal.
On the day of the assay, cells are detached using trypsin 0.05%, resuspended in assay buffer (1.8 mM CaCl2, 1 mM MgCl2, 2.7 mM KCl, 137 mM NaCl, 0.4 mM NaH2PO4, 5.5 mM D-Glucose, 11.9 mM NaHCO3, 25 mM Hepes) and seeded in 384 well plate at a density of 20,000 cells per well. Then, plates are equilibrated 3.5 hours at 37° C. before adding compounds.
Compounds and luciferase substrate are added to the cells using an automated device (Freedom Evo®, Tecan) and BRET readings are collected on EnVision (PerkinElmer) with specific filters (410 nm BW 80 nm, 515 nm BW 30 nm).
Agonist and antagonist activities of compounds are consecutively evaluated on the same cell plate. Agonist activity is first measured after 10 minutes incubation with compound alone on the cells. Then, cells are stimulated by an EC80 RFRP-3 concentration and luminescence is recorded for additional 10 minutes. EC80 RFRP-3 concentration is the concentration giving 80% of the maximal RFRP-3 response. Agonist or antagonist activities are evaluated in comparison to basal signals evoked by assay buffer or EC80 RFRP-3 alone, respectively.
For IC50 determination, a dose-response test is performed using 20 concentrations (ranging over 6 logs) of each compound. Dose-response curves are fitted using the sigmoidal dose-response (variable slope) analysis in GraphPad Prism software (GraphPad Software) and IC50 of antagonist activity is calculated. Dose-response experiments are performed in duplicate, in two independent experiments.

T1 sequence (Q9GZQ6 whole entry): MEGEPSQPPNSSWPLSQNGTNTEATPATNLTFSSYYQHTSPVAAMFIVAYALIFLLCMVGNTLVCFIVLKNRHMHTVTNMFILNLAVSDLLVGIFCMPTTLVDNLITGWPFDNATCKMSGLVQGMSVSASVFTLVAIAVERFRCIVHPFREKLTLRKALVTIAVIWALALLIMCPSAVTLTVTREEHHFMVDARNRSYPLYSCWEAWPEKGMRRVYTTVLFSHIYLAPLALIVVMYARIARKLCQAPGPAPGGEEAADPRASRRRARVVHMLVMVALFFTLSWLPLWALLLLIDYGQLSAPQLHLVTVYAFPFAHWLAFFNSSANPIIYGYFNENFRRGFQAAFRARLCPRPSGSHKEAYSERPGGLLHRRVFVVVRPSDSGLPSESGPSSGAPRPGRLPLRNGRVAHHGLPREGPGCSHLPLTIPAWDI

| SMILES | melting point [°C] | IC50 [1] [nM] |
| --- | --- | --- |
| CCc1nc(N)ccc1-c1ccc(F)c2cccnc12.Cl [Example 1, 6-ethyl-5-(5-fluoroquinolin-8-yl)pyridin-2-amine] | 120 to 140 | < 100 |
| Cl.Nc1ccc(-c2cccc3cccnc23)c(F)n1 [Example 2, 6-Fluoro-5-quinolin-8-yl-pyridin-2-ylamine] | > 250 | > 1000 |
| Cc1nc(N)ccc1-c1cccc2cccnc12.Cl [Example 3, 6-Methyl-5-quinolin-8-yl-pyridin-2-ylamine] | > 250 | 100 to 1000 |
| CCc1nc(N)ccc1-c1csc2ccccc12 [Example 4, 5-Benzo[b]thiophen-3-yl-6-ethyl-pyridin-2-ylamine] | 108 to 120 | 100 to 1000 |
| CCc1nc(N)ccc1-c1csc2cc(OC)ccc12 [Example 5, 6-Ethyl-5-(6-methoxybenzothiophen-3-yl)pyridin-2-amine] | 151 to 155 | > 1000 |
| CCc1nc(N)ccc1-c1cccc2ccncc12.Cl [Example 6, 6-Ethyl-5-(8-isoquinolyl)pyridin-2-amine] | > 250 | < 100 |
| CCCc1nc(N)ccc1-c1csc2ccccc12.Cl [Example 7, 5-Benzo[b]thiophen-3-yl-6-propyl-pyridin-2-ylamine] | 175 to 190 | 100 to 1000 |
| CCCc1nc(N)ccc1-c1cccc2cccnc12.Cl [Example 8, 6-Propyl-5-(8-quinolyl)pyridin-2-amine] | 80 to 120 | < 100 |
| CCCc1nc(N)ccc1-c1cccc2ccncc12.Cl [Example 9, 5-(8-Isoquinolyl)-6-propyl-pyridin-2-amine] | 100 to 117 | < 100 |
| CC(C)c1nc(N)ccc1-c1csc2ccccc12.Cl [Example 10, 5-Benzo[b]thiophen-3-yl-6-isopropyl-pyridin-2-ylamine] | > 250 | 100 to 1000 |
| CC(C)c1nc(N)ccc1-c1cccc2cccnc12.Cl [Example 11, 6-Isopropyl-5-(8-quinolyl)pyridin-2-amine] | > 250 | < 100 |
| CC(C)c1nc(N)ccc1-c1cccc2ccncc12.Cl [Example 12, 6-Isopropyl-5-(8-isoquinolyl)pyridin-2-amine] | > 250 | 100 to 1000 |
| Cl.Nc1ccc(-c2csc3ccccc23)c(C2CC2)n1 [Example 13, 5-Benzo[b]thiophen-3-yl-6-cyclopropyl-pyridin-2-ylamine] | 210 to 220 | 100 to 1000 |
| Cl.Nc1ccc(-c2cccc3cccnc23)c(C2CC2)n1 [Example 14, 6-Cyclopropyl-5-(8-quinolyl)pyridin-2-amine] | > 250 | 100 to 1000 |
| Cl.Nc1ccc(-c2cccc3ccncc23)c(C2CC2)n1 [Example 15, 6-Cyclopropyl-5-(8-isoquinolyl)pyridin-2-amine] | 200 to 215 | 100 to 1000 |
| Cn1cc(-c2ccc(N)nc2N)c2ccccc21 [Example 16, 3-(1-Methylindol-3-yl)pyridine-2,6-diamine] | 47 to 55 | > 1000 |
| CC(C)(C)OC(=O)n1cc(-c2ccc(N)nc2N)c2ccccc21 [Example 17, Tert-butyl 3-(2,6-diamino-3-pyridyl)indole-1-carboxylate] | 150 to 154 | > 1000 |
| Nc1ccc(-c2c[nH]c3ccccc23)c(N)n1 [Example 18, 3-(1H-indol-3-yl)pyridine-2,6-diamine] | 152 to 155 | > 1000 |
| Nc1ccc(-c2cnn3ccccc23)c(N)n1 [Example 19, 3-Pyrazolo[1,5-a]pyridin-3-ylpyridine-2,6-diamine] | 195 to 200 | > 1000 |
| Nc1ccc(-c2coc3ccccc23)c(N)n1 [Example 20, 3-(Benzofuran-3-yl)pyridine-2,6-diamine] | 109 to 112 | 100 to 1000 |
| Cl.Nc1ccc(-c2csc3ccccc23)c(N)n1 [Example 21, 3-(Benzothiophen-3-yl)pyridine-2,6-diamine] | 35 to 38 | 100 to 1000 |

Second part, the compound after the results:

| melting point [°C] | IC50 [1] [nM] | SMILES |
| --- | --- | --- |
| 103 to 113 | – | CCc1nc(N)ccc1-c1cccc2ccc(C(=O)N(C)C)nc12 (as salt: hydrochloride) [Example 140, 8-(6-amino-2-ethylpyridin-3-yl)-N,N-dimethylquinoline-2-carboxamide] |
| 116 to 118 | 100 to 1000 | Nc1ccc(-c2csc3ccc(F)cc23)c(N)n1 [Example 22, 3-(5-Fluoro-benzo[b]thiophen-3-yl)pyridine-2,6-diamine] |
| 130 to 170 | < 100 | Cc1ccc2ccc(F)c(-c3ccc(N)nc3N)c2n1.Cl [Example 23, 3-(7-fluoro-2-methylquinolin-8-yl)pyridine-2,6-diamine] |
| 150 to 154 | 100 to 1000 | Cl.Nc1ccc(-c2cccc3[nH]ccc23)c(N)n1 [Example 24, 3-(1H-Indol-4-yl)pyridine-2,6-diamine] |
| 62 to 70 | < 100 | Nc1ccc(-c2cccc3cc[nH]c23)c(N)n1 [Example 25, 3-(1H-indol-7-yl)pyridine-2,6-diamine] |
| 198 to 204 | 100 to 1000 | Cl.Cn1ncc2cccc(-c3ccc(N)nc3N)c21 [Example 26, 3-(1-Methylindazol-7-yl)pyridine-2,6-diamine] |
| > 250 | > 1000 | CN1Cc2c(cccc2-c2ccc(N)nc2N)C1=O [Example 27, 4-(2,6-Diamino-3-pyridyl)-2-methyl-isoindolin-1-one] |
| > 250 | 100 to 1000 | Cl.Nc1ccc(-c2cccc3c2OCC3)c(N)n1 [Example 28, 3-(2,3-Dihydrobenzofuran-7-yl)pyridine-2,6-diamine] |
| 100 to 113 | 100 to 1000 | Cl.Nc1ccc(-c2cccc3ccsc23)c(N)n1 [Example 29, 3-(Benzothiophen-7-yl)pyridine-2,6-diamine] |
| > 250 | 100 to 1000 | Cl.Nc1ccc(-c2cccc3scnc23)c(N)n1 [Example 30, 3-(1,3-Benzothiazol-4-yl)pyridine-2,6-diamine] |
| 77 to 88 | < 100 | Cl.Nc1ccc(-c2cccc3ccncc23)c(N)n1 [Example 32, 3-Isoquinolin-8-yl-pyridine-2,6-diamine] |
| > 250 | 100 to 1000 | Nc1ccc(-c2cccc3cnccc23)c(N)n1 [Example 33, 3-(5-Isoquinolyl)pyridine-2,6-diamine] |
| > 250 | 100 to 1000 | Nc1ccc(-c2cccc3ncccc23)c(N)n1 [Example 34, 3-Quinolin-5-yl-pyridine-2,6-diamine] |
| > 250 | > 1000 | Nc1ccc(-c2ccnc3ccccc23)c(N)n1 [Example 35, 3-Quinolin-4-yl-pyridine-2,6-diamine] |
| 180 to 185 | > 1000 | Nc1ccc(-c2cncc3ccccc23)c(N)n1 [Example 36, 3-Isoquinolin-4-yl-pyridine-2,6-diamine] |
| 110 to 124 | < 100 | Cl.Nc1ccc(-c2cccc3c2OCCC3)c(N)n1 [Example 37, 3-Chroman-8-yl-pyridine-2,6-diamine] |
| 99 to 110 | 100 to 1000 | Cl.Nc1ccc(-c2cccc3c2OCCO3)c(N)n1 [Example 38, 3-(2,3-Dihydro-benzo[1,4]dioxin-5-yl)-pyridine-2,6-diamine] |
| 165 to 170 | < 100 | Cl.Nc1ccc(-c2cccc3c2sc2ccccc23)c(N)n1 [Example 39, 3-Dibenzothiophen-4-ylpyridine-2,6-diamine] |
| 156 to 162 | – | CCc1nc(N)ccc1-c1cccc2ccc(C(=O)NC3COC3)nc12 [Example 175, 8-(6-amino-2-ethylpyridin-3-yl)-N-(oxetan-3-yl)quinoline-2-carboxamide] |
